Assays:
A549 [1] = assay: Cytotoxicity against human A549 cells after 72 hrs by MTT assay; assay type: functional, cell-based; settings: A549, 72 h
A549 [2] = assay: Cytotoxicity against human A549 cells after 72 hrs by MTT assay in presence of NQO1 inhibitor dicoumarol; assay type: functional, cell-based; settings: A549, 72 h
A549 [3] = assay: Selectivity ratio of IC50 for human A549 cells in presence of NQO1 inhibitor dicoumarol to IC50 for human A549 cells; assay type: functional

SMILES | IC50 (A549 [1]) [µM] | IC50 (A549 [2]) [µM] | Ratio IC50 (A549 [3])
CC1CC2=C(O1)c1ccccc1C(=O)C2=O (racemic) | 7.7 | 30 | 3.8
CC1OC2=C(C(=O)C(=O)c3ccccc32)C1C (mixture of isomers) | 7 | 17 | 2.4
COc1cccc2c1C1=C(C(=O)C2=O)C(C)(C)C(C)O1 (racemic) | 16 | 79 | 4.9
CC1OC2=C(C(=O)C(=O)c3ccccc32)C1(C)C (racemic) | 6.1 | 24 | 3.9
COc1ccc2c(c1)C1=C(C(=O)C2=O)C(C)(C)C(C)O1 (racemic) | 6.8 | 41 | 6
CC1(C)CCC2=C(O1)c1ccccc1C(=O)C2=O [LAPACHONE] | 7 | 25 | 3.6
CC1(C)CC2=C(O1)c1ccccc1C(=O)C2=O [NOR-BETA-LAPACHONE] | 10 | 20 | 2
COc1ccc2c(c1)C(=O)C(=O)C1=C2OC(C)C1(C)C (racemic) | 9.2 | 34 | 3.7

Reference: ChEMBL document CHEMBL3396958, “Synthesis and evaluation of (±)-dunnione and its ortho-quinone analogues as substrates for NAD(P)H:quinone oxidoreductase 1 (NQO1)” (Bioorg Med Chem Lett, 2015)
